Our source for the Glucose uptake activity values is US20200246403A1, “YEAST EXTRACT HAVING DIABETES PREVENTION EFFECT” (MITSUBISHI CORPORATION LIFE SCIENCES LIMITED, priority 2016, published 2020).

The assay concerns rat myoblasts (L6 cells). In words: Measurement of glucose uptake activity in rat myoblasts (L6 cells), 2-NBDG fluorescence. Type of assay: cell-based. As to conditions: insulin final concentration 100 nM (positive control), 100 μM 2-NBDG, 20 minutes. As to the method:
Test 1: Measurement of Glucose Uptake Activity in Rat Myoblasts (L6 Cells)
L6 cells were seeded (1×10^4 cells/well) in a 96-well plate with a D-MEM medium (Dulbecco/Vogt modified Eagle's minimal essential medium) containing 10% fetal bovine serum, and pre-cultured for 48 hours (5% CO2, 37° C.) Then, the medium was replaced with a D-MEM medium containing 2% horse serum and culture was performed for 96 hours (5% CO2, 37° C.) to induce differentiation. Subsequently, the medium was replaced with a serum-free D-MEM medium, and synchronous culture was performed for 4 hours (5% CO2, 37° C.). Thereafter, the wells were washed with a KRPH buffer (Krebs Ringer Phosphate Hepes buffer), and 100 μL of a sample solution (final concentration 1 mg/mL or 5 mg/mL) dissolved in a KRPH buffer containing 100 μM 2-NBDG (2-deoxy-2-[(7-nitro-2,1,3-benzoxadiazol-4-yl)amino]-D-glucose) was added and incubated for 20 minutes (5% […], 37° C.). […] The fluorescence intensity of 2-NBDG, as the fluorescent glucose analogue incorporated into the cells, was measured at an excitation wavelength of 470 nm and a detection wavelength of 550 nm using a microplate reader. The glucose uptake activity was determined based on the following formula as the ratio of the fluorescence intensity (FS) in the case of making the sample solution react when the fluorescence intensity (FC) of the control was taken as 100. […]

Turning to insulin, the Glucose uptake activity entry is reported as “significantly increased”.
